Laboratory results published in PMC10284923 (The ISME Journal, 2023).
Read-outs that look alike come from different tables or passages of the source.

What was measured:
Ec_PhnD [1] = settings: intrinsic fluorescence, read-out: Dissociation constant (KD); cited from earlier work
Ec_PhnD [2] = settings: ITC, dash = binding not detected, read-out: Dissociation constant (KD); cited from earlier work
Prochlorococcus MIT9313 = settings: cited from earlier work
Prochlorococcus MED4 = settings: cited from earlier work
Synechococcus WH8102 = format: cell-based
Experimental: (§1) For treatment conditions containing alternative P compounds, 50 µM NaH2PO4 was replaced with 50 µM phosphite (Na2HPO3·5H2O) or methylphosphonate. In P-deplete media, an equal volume of water was added instead of a P compound. Experimental cultures were started from mid-logarithmic cultures grown in phosphate-containing PCR-S11 media. A small inoculum (~100 µL) was used to minimise the transfer of phosphate from stock cultures. Four biological replicates were tested for each experimental condition. Growth was regularly monitored via cell counts using a CytoFLEX S flow cytometer. […] Phosphate concentration in all treatment conditions was monitored regularly for the duration of the experiments using a Phosphate Colorimetric kit following the manufacturer’s instructions (Sigma-Aldrich) with a detection limit of 0.5 µM.

Synechococcus MITS9220 = format: cell-based
Experimental: as §1

Prochlorococcus MIT9301 = settings: cited from earlier work
Pm_PtxB = settings: read-out: Dissociation constant (KD); cited from earlier work
WH8102_PhnD1 = WH8102_PhnD1 (Parasynechococcus marenigrum, UniProt Q7U716); format: binding, Synechococcus sp. WH8102; settings: read-out: Dissociation constant (KD)
CC9311_PhnD1 = format: binding, Synechococcus sp. CC9311; settings: read-out: Dissociation constant (KD)

Sequence of WH8102_PhnD1 (Q7U716 27-306 limits assumed): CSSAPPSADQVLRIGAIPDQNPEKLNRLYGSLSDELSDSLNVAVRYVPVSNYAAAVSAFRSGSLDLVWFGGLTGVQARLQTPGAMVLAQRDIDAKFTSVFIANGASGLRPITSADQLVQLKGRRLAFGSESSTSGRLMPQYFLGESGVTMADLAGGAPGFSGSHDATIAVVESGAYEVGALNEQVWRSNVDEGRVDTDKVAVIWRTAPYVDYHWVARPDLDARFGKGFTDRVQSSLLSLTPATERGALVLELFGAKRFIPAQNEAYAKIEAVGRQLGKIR

## NCCP(=O)(O)O [2-AEP, 2-aminoethylphosphonate]
Ec_PhnD [1]
  Kd: < 50 nM
Ec_PhnD [2]
  Kd: 100 nM

## O=P(O)(O)O [Pi, inorganic phosphate]
Prochlorococcus MIT9313
  Growth and utilisation of P source: only able to utilise Pi for their growth
Prochlorococcus MED4
  Growth and utilisation of P source: only able to utilise Pi for their growth
Synechococcus WH8102; 50 µM P source, PCR-S11 medium, cell density by flow cytometry, 49 days
  Growth as sole P source: growth seen
Synechococcus MITS9220; 50 µM P source, PCR-S11 medium, cell density by flow cytometry
  Growth as sole P source: growth seen

## phosphite [Pt]
Prochlorococcus MIT9301
  Use as sole P source to support growth: can use Pt or MPn as the sole P source to support its growth
Prochlorococcus MIT9313
  Growth and utilisation of P source: unable to grow and utilise
Pm_PtxB
  Kd: 2000 nM
Prochlorococcus MED4
  Growth and utilisation of P source: unable to grow and utilise
Synechococcus WH8102
  Growth as sole P source: do not exhibit a clearly defined exponential growth
Synechococcus MITS9220
  Growth as sole P source: do not exhibit a clearly defined exponential growth
WH8102_PhnD1
  Kd: 4300 ± 500 nM
CC9311_PhnD1
  Kd: 1700 ± 900 nM
